Source: patent US10538490B2, “Benzylaminopyridylcyclopropanecarboxylic acids, pharmaceutical compositions and uses thereof” (Boehringer Ingelheim International GmbH, priority 2016, dated 2020)
≈ marks a conversion by molar mass, not a printed value.

Assays:
human GPR40 receptor = human GPR40 receptor (Homo sapiens, UniProt O14842); test: IP1 accumulation measurements using the IPOne assay system; type: cell-based; conditions: 1321N1 cells stably expressing human GPR40 receptor, stimulation 1 h at 37° C.
human GPR40 receptor, sequence (O14842 whole entry): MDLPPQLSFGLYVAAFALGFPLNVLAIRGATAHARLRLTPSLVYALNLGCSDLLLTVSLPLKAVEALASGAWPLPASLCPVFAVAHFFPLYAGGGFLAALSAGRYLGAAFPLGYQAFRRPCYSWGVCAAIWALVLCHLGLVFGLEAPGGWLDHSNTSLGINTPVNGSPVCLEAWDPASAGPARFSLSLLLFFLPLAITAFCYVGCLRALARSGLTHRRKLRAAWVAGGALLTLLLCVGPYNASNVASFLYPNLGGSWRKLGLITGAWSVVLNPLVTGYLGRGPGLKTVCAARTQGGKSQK
Description: IP1 accumulation measurements using the IPOne assay system—1321N1 cells stably expressing human GPR40 receptor (Euroscreen, Belgium) are seeded 24 h before the assay in white 384-well plates in culture medium containing 10% FCS, 1% Na-Pyruvate and 400 μg/mL G418. IPi is assayed according to the manufacturer's description (Cisbio Bioassays, France). In brief, the assay is started by substitution of the culture medium by stimulation buffer (Hepes 10 mM, CaCl2 1 mM, MgCl2 0.5 mM, KCl 4.2 mM, NaCl 146 mM, glucose 5.5 mM and LiCl 50 mM, pH 7.4). Cells are stimulated for 1 h at 37° C., 5% CO2 by addition of the compounds that are diluted in stimulation buffer containing LiCl. Assays are stopped by adding HTRF-conjugates (IP1-d2 and Anti-IP1 cryptate Tb) and lysis buffer, provided by the manufacturer. After an incubation time of 1 h at room temperature plates are measured using an EnVision™, Perkin Elmer. The obtained fluorescence ratios at 665/615 […] are then used to calculate the pEC50 values using Assay Explorer 3.3 Software (Accelrys, Inc.) by interpolation using an IP1 reference curve and subsequent sigmoidal curve fitting allowing for a variable hill slope.

[1] = Aqueous solubility in buffer versus acetonitrile/water (1/1), LC-UV; type: physicochemical; conditions: kinetic from dmso stock, buffer pH 2.2, 24 h shaking, 2.5% DMSO, ">" if more than 90% dissolved
Description: The aqueous solubility of the compounds of the invention is determined by comparing the amount dissolved in buffer to the amount in an acetonitrile/water (1/1) solution. Starting from a 10 mM DMSO stock solution aliquots are diluted with acetonitrile/water (1/1) or buffer, respectively. After 24 h of shaking, the solutions are filtrated and analyzed by LC-UV. The amount dissolved in buffer is compared to the amount in the acetonitrile solution.
Solubility is usually being measured from 0.001 to 0.125 mg/mL at a DMSO concentration of 2.5%. If more than 90% of the compound is dissolved in buffer, the value is marked with “>”.

Row | EC50 (human GPR40 receptor) [nM] | solubility at 24 h [1] [µg/mL] | SMILES
1 | 100 | 87 (≈ 177 µM) | Cc1cc(OC2CCOCC2)cc(C)c1-c1ccc(F)c(CNc2ccc([C@H]3C[C@@H]3C(=O)O)cn2)c1 [Example 42]
2 | 189 | 123 (≈ 228 µM) | Cc1cc(OCC2(O)CCOCC2)cc(C)c1-c1cc(CNc2ccc([C@H]3C[C@@H]3C(=O)O)cn2)c(F)cc1F [Example 97]
3 | 36 | 42 (≈ 103 µM) | Cc1cccc(C)c1-c1cc(CNc2ccc([C@H]3C[C@@H]3C(=O)O)cn2)c(F)cc1F [Example 61]
4 | 8 | 89 (≈ 181 µM) | Cc1cc(-c2nnn(C)n2)cc(C)c1-c1cc(CNc2ccc([C@H]3C[C@@H]3C(=O)O)cn2)c(F)cc1F [Example 90]
5 | 83 | 97 (≈ 224 µM) | Cc1cc(C#N)cc(C)c1-c1cc(CNc2ccc([C@H]3C[C@@H]3C(=O)O)cn2)c(F)cc1F [Example 77]
6 | 220 | 122 (≈ 234 µM) | Cc1cc(OCC2(O)CCOCC2)cc(C)c1-c1ccc(F)c(CNc2ccc([C@H]3C[C@@H]3C(=O)O)cn2)c1 [Example 55]
7 | 137 | 86 (≈ 207 µM) | Cc1cc(C#N)cc(C)c1-c1ccc(F)c(CNc2ccc([C@H]3C[C@@H]3C(=O)O)cn2)c1 [Example 35]
8 | 45 | 87 (≈ 177 µM) | Cc1cc(OCCC(C)(C)O)cc(C)c1-c1ccc(F)c(CNc2ccc([C@H]3C[C@@H]3C(=O)O)cn2)c1 [Example 1]
9 | 59 | 106 (≈ 214 µM) | Cc1cc(O[C@@H]2CCOC2)cc(C)c1-c1cc(CNc2ccc([C@H]3C[C@@H]3C(=O)O)cn2)c(F)cc1F [Example 80]
10 | 59 | > 120 | COc1cc(C)c(-c2cc(CNc3ccc([C@H]4C[C@@H]4C(=O)O)cn3)c(F)cc2F)c(C)c1 [Example 68]
11 | 11 | 88 (≈ 176 µM) | Cc1cnc(-c2cc(C)c(-c3cc(CNc4ccc([C@H]5C[C@@H]5C(=O)O)cn4)c(F)cc3F)c(C)c2)nc1 [Example 95]
12 | 54 | 107 (≈ 215 µM) | Cc1cc(-c2cc(=O)n(C)cn2)cc(C)c1-c1ccc(F)c(CNc2ccc([C@H]3C[C@@H]3C(=O)O)cn2)c1 [Example 43]
13 | 8 | 97 (≈ 188 µM) | COc1cc(-c2cc(C)c(-c3cc(CNc4ccc([C@H]5C[C@@H]5C(=O)O)cn4)c(F)cc3F)c(C)c2)ccn1 [Example 99]
14 |  | < 1 | Cc1cc(-c2nnn(C)n2)cc(C)c1-c1ccc(F)c2c1CC[C@H]2Oc1ccc([C@H]2C[C@@H]2C(=O)O)cc1 [WO 2013/178575 Example 45, reference compound]
15 | 96 |  | Cc1cc(OCC(C)(C)C#N)cc(C)c1-c1ccc(F)c(CNc2ccc([C@H]3C[C@@H]3C(=O)O)cn2)c1 [Example 46]
16 | 1320 |  | COc1cc(OC)c(F)c(-c2cc(CNc3ccc([C@H]4C[C@@H]4C(=O)O)cn3)c(F)cc2F)c1F [Example 94]
17 | 65 |  | Cc1cc(OCc2ccccc2)cc(C)c1-c1cc(CNc2ccc([C@H]3C[C@@H]3C(=O)O)cn2)c(F)cc1F [Example 89]
18 | 236 |  | Cc1cc(CO)cc(C)c1-c1cc(CNc2ccc([C@H]3C[C@@H]3C(=O)O)cn2)c(F)cc1F [Example 82]
19 | 25 |  | Cc1cc(-c2cc(=O)n(C)cn2)cc(C)c1-c1cc(CNc2ccc([C@H]3C[C@@H]3C(=O)O)cn2)c(F)cc1F [Example 85]
20 | 1340 |  | N#CC1(c2ccccc2-c2cc(CNc3ccc([C@H]4C[C@@H]4C(=O)O)cn3)c(F)cc2F)CC1 [Example 74]
21 | 834 |  | O=C(O)[C@H]1C[C@@H]1c1ccc(NCc2cc(-c3c(C(F)(F)F)cccc3C(F)(F)F)ccc2F)nc1 [Example 21]
22 | 668 |  | COc1cc(F)c(-c2cc(CNc3ccc([C@H]4C[C@@H]4C(=O)O)cn3)c(F)cc2F)c(F)c1 [Example 62]
23 | 5960 |  | Cc1cc(C(=O)O)cc(C)c1-c1cc(CNc2ccc([C@H]3C[C@@H]3C(=O)O)cn2)c(F)cc1F [Example 69]

Row | SMILES | EC50 (human GPR40 receptor) [nM] | solubility at 24 h [1] [µg/mL]
24 | O=C(O)[C@H]1C[C@@H]1c1ccc(NCc2cc(-c3c(Cl)cccc3Cl)c(F)cc2F)nc1 [Example 73] | 40 | 
